Source: patent EP4567034A1 (Korea Institute of Science and Technology, priority 2022, dated 2024)

Assays:
S1P1 receptor [1] = biological target: T1, S1P1 receptor (Homo sapiens, UniProt P21453); assay: S1P1 β-arrestin recruitment assay in S1P1 overexpressing cell line (DiscoverX), luminescence; format: cell-based
S1P1 receptor [2] = biological target: T1, S1P1 receptor; assay: S1P1 receptor internalization (endosome formation) assay in S1P1 overexpressing cell line (DiscoverX), luminescence; format: cell-based
[3] = S1P1 overexpressing cell line, β-arrestin recruitment, luminescence, read-out: β-arrestin EC50
[4] = S1P1 overexpressing cell line, endosome formation by internalization, luminescence, read-out: Internalization EC50

T1 sequence (P21453 whole entry): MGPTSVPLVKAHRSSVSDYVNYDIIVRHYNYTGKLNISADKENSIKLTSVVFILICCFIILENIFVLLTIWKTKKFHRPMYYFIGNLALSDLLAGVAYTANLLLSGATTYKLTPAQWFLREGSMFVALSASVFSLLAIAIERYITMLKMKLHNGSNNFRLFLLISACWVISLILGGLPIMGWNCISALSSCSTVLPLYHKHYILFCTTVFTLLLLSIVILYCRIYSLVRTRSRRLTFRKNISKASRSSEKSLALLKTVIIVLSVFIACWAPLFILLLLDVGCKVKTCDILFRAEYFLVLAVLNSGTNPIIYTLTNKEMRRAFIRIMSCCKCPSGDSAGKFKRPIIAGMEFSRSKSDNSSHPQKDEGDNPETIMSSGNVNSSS

Row | SMILES | EC50 (S1P1 receptor [1]) [nM] | EC50 (S1P1 receptor [2]) [nM] | EC50 (S1P1 receptor [1]; [3]) [nM] | EC50 (S1P1 receptor [2]; [4]) [nM]
1 | COC(=O)C1CN(Cc2ccc(-c3cnc(-c4ccc(OC(C)C)c(Cl)c4)[se]3)cc2)C1 [Compound 12, Methyl 1-(4-(2-(3-chloro-4-isopropoxyphenyl)-1,3-selenazole-5-yl)benzyl)azetidine-3-carboxylate] | 1.41 | 1.48 |  | 
2 | COc1ccc(-c2ncc(-c3ccc(CN4CC(C(=O)O)C4)cc3)[se]2)cc1 [Compound 17, 1-(4-(2-(4-methoxyphenyl)-1,3-selenazole-5-yl)benzyl)azetidine-3-carboxylic acid] | 25.9 | 81.3 |  | 
3 | CCOC(=O)C1CN(Cc2ccc(-c3cnc(-c4ccccc4OC(C)C)[se]3)cc2)C1 [Compound 25, Ethyl 1-(4-(2-(2-isopropoxyphenyl)-1,3-selenazole-5-yl)benzyl)azetidine-3-carboxylate] |  |  | 252 | 347
4 | COC(=O)C1CN(Cc2ccc(-c3cnc(-c4ccccn4)[se]3)cc2)C1 [Compound 26, Methyl 1-(4-(2-(pyridine-2-yl)-1,3-selenazole-5-yl)benzyl)azetidine-3-carboxylate] |  |  | > 1000 | > 1000
5 | CC(C)Oc1ccc(-c2ncc(-c3ccc(CN4CC(C(=O)O)C4)cc3)[se]2)cc1C#N [Compound 6] | 0.37 | 0.065 |  | 
6 | CC(C)Oc1ccc(-c2ncc(-c3ccc(CN4CC(C(=O)OC(C)(C)C)C4)cc3)[se]2)cc1C#N [Compound 8, Tert-butyl 1-(4-(2-(3-cyano-4-isopropoxyphenyl)-1,3-selenazole-5-yl)benzyl)azetidine-3-carboxylate] | 29.9 | 33.1 |  | 
7 | COC(=O)C1CN(Cc2ccc(-c3cnc(-c4ccccc4OC(C)C)[se]3)cc2)C1 [Compound 23, Methyl 1-(4-(2-(2-isopropoxyphenyl)-1,3-selenazole-5-yl)benzyl)azetidine-3-carboxylate] |  |  | > 1000 | > 1000
8 | CCOC(=O)C1CN(Cc2ccc(-c3cnc(-c4ccc(OC(C)C)cc4)[se]3)cc2)C1 [Compound 20, Ethyl 1-(4-(2-(4-isopropoxyphenyl)-1,3-selenazole-5-yl)benzyl)azetidine-3-carboxylate] | 3.05 | 119 |  | 
9 | COC(=O)C1CN(Cc2ccc(-c3cnc(-c4cccnc4)[se]3)cc2)C1 [Compound 28, Methyl 1-(4-(2-(pyridine-3-yl)-1,3-selenazole-5-yl)benzyl)azetidine-3-carboxylate] |  |  | > 1000 | > 1000
10 | COC(=O)C1CN(Cc2ccc(-c3cnc(-c4ccc(OC(C)C)cc4)[se]3)cc2)C1 [Compound 18, Methyl 1-(4-(2-(4-isopropoxyphenyl)-1,3-selenazole-5-yl)benzyl)azetidine-3-carboxylate] | 3.24 | 9.26 |  | 
11 | COC(=O)CCNCc1ccc(-c2cnc(-c3ccc(OC(C)C)c(Cl)c3)[se]2)cc1 [Compound 37, Methyl 3-(4-(2-(3-chloro-4-isopropoxyphenyl)-1,3-selenazole-5-yl)benzylamino)propanoate] | 7.88 | 13.5 |  | 
12 | COC(=O)C1CN(Cc2ccc(-c3ncc(-c4ccc(C(C)(C)C)cc4)[se]3)cc2)C1 [Compound 39, Methyl 1-(4-(5-(4-tert-butylphenyl)-1,3-selenazole-2-yl)benzyl)azetidine-3-carboxylate] | 39.2 | 160 |  | 
13 | CCOC(=O)C1CN(Cc2ccc(-c3cnc(-c4ccc(C(C)(C)C)cc4)[se]3)cc2)C1 [Compound 3, Ethyl 1-(4-(2-(4-tert-butylphenyl)-1,3-selenazole-5-yl)benzyl)azetidine-3-carboxylate] | 23.6 | 116 |  | 
14 | CCOC(=O)C1CN(Cc2ccc(-c3cnc(-c4ccc(OC(C)C)c(C(F)(F)F)c4)[se]3)cc2)C1 [Compound 11, Ethyl 1-(4-(2-(4-isopropoxy-3-(trifluoromethyl)phenyl)-1,3-selenazole-5-yl)benzyl)azetidine-3-carboxylate] | 1.49 | 12.6 |  | 
15 | COC(=O)C1CN(Cc2ccc(-c3ncc(-c4ccc(OC(C)C)c(Cl)c4)[se]3)cc2)C1 [Compound 41, Methyl 1-(4-(5-(3-chloro-4-isopropoxyphenyl)-1,3-selenazole-2-yl)benzyl)azetidine-3-carboxylate] | 0.9 | 9.52 |  | 
16 | CCOc1ccc(-c2ncc(-c3ccc(CN4CC(C(=O)OC)C4)cc3)[se]2)cc1Cl [Compound 14, Methyl 1-(4-(2-(3-chloro-4-ethoxyphenyl)-1,3-selenazole-5-yl)benzyl)azetidine-3-carboxylate] | 1.13 | 4.91 |  | 
17 | COC(=O)C1CN(Cc2ccc(-c3cnc(-c4ccc(OC)cc4)[se]3)cc2)C1 [Compound 16, Methyl 1-(4-(2-(4-methoxyphenyl)-1,3-selenazole-5-yl)benzyl)azetidine-3-carboxylate] | 48.5 | 139 |  | 

Row | SMILES | EC50 (S1P1 receptor [1]) [nM] | EC50 (S1P1 receptor [2]) [nM] | EC50 (S1P1 receptor [1]; [3]) [nM] | EC50 (S1P1 receptor [2]; [4]) [nM]
18 | COC(=O)C1CN(Cc2ccc(-c3cnc(-c4cccc(OC(C)C)c4)[se]3)cc2)C1 [Compound 21, Methyl 1-(4-(2-(3-isopropoxyphenyl)-1,3-selenazole-5-yl)benzyl)azetidine-3-carboxylate] |  |  | 503 | 379
19 | CC(C)(C)OC(=O)C1CN(Cc2ccc(-c3cnc(-c4ccc(C(C)(C)C)cc4)[se]3)cc2)C1 [Compound 4, Tert-butyl 1-(4-(2-(4-tert-butylphenyl)-1,3-selenazole-5-yl)benzyl)azetidine-3-carboxylate] | 70.1 | 141 |  | 
20 | O=C(O)C1CN(Cc2ccc(-c3cnc(-c4ccccn4)[se]3)cc2)C1 [Compound 27, Sodium 1-(4-(2-(pyridine-2-yl)-1,3-selenazole-5-yl)benzyl)azetidine-3-carboxylate] |  |  | > 1000 | > 1000
21 | CCOC(=O)C1CN(Cc2ccc(-c3cnc(-c4ccc(OC(C)C)c(C#N)c4)[se]3)cc2)C1 [Compound 7, Ethyl 1-(4-(2-(3-cyano-4-isopropoxyphenyl)-1,3-selenazole-5-yl)benzyl)azetidine-3-carboxylate] | 1.17 | 4.33 |  | 
22 | CCOC(=O)CNCc1ccc(-c2cnc(-c3ccc(OC(C)C)c(Cl)c3)[se]2)cc1 [Compound 35, Ethyl 2-(4-(2-(3-chloro-4-isopropoxyphenyl)-1,3-selenazole-5-yl)benzylamino)acetate] | 21 | 11.5 |  | 
23 | COC(=O)C1CCN(Cc2ccc(-c3cnc(-c4ccc(OC(C)C)c(Cl)c4)[se]3)cc2)C1 (stereo not drawn) [Compound 33, Methyl 1-(4-(2-(3-chloro-4-isopropoxyphenyl)-1,3-selenazole-5-yl)benzyl)pyrrolidine-3-carboxylate] | 1.79 | 11.9 |  | 
24 | COC(=O)C1CCN(Cc2ccc(-c3cnc(-c4ccc(C(C)(C)C)cc4)[se]3)cc2)CC1 [Compound 32, Methyl 1-(4-(2-(4-tert-butylphenyl)-1,3-selenazole-5-yl)benzyl)piperidine-4-carboxylate] |  |  | 580 | 519
25 | CC(C)Oc1cccc(-c2ncc(-c3ccc(CN4CC(C(=O)O)C4)cc3)[se]2)c1 [Compound 22, 1-(4-(2-(3-isopropoxyphenyl)-1,3-selenazole-5-yl)benzyl)azetidine-3-carboxylic acid] | 8.59 | 97.4 |  | 
26 | COC(=O)C1CN(Cc2ccc(-c3cnc(-c4ccc(OC(C)C)c(C(F)(F)F)c4)[se]3)cc2)C1 [Compound 9, Methyl 1-(4-(2-(4-isopropoxy-3-(trifluoromethyl)phenyl)-1,3-selenazole-5-yl)benzyl)azetidine-3-carboxylate] | 1.82 | 1.59 |  | 
27 | CC(C)Oc1ccc(-c2ncc(-c3ccc(CN4CC(C(=O)O)C4)cc3)[se]2)cc1 [Compound 19, 1-(4-(2-(4-isopropoxyphenyl)-1,3-selenazole-5-yl)benzyl)azetidine-3-carboxylic acid] | 1.14 | 0.97 |  | 
28 | COC(=O)C1CCN(Cc2ccc(-c3cnc(-c4ccc(C(C)(C)C)cc4)[se]3)cc2)C1 (stereo not drawn) [Compound 30, Methyl 1-(4-(2-(4-tert-butylphenyl)-1,3-selenazole-5-yl)benzyl)pyrrolidine-3-carboxylate] | 8.5 | 205 |  | 
29 | CC(C)Oc1ccc(-c2ncc(-c3ccc(CN4CC(C(=O)O)C4)cc3)[se]2)cc1C(F)(F)F [Compound 10, 1-(4-(2-(4-isopropoxy-3-(trifluoromethyl)phenyl)-1,3-selenazole-5-yl)benzyl)azetidine-3-carboxylic acid] | 0.45 | 0.36 |  | 
30 | COC(=O)C1CN(Cc2ccc(-c3cnc(-c4ccc(OC(C)C)c(C#N)c4)[se]3)cc2)C1 [Compound 5] | 3.64 | 0.87 |  | 
31 | COC(=O)C1CN(Cc2ccc(-c3cnc(-c4ccc(C(C)(C)C)cc4)[se]3)cc2)C1 [Compound 1, Methyl 1-(4-(2-(4-tert-butylphenyl)-1,3-selenazole-5-yl)benzyl)azetidine-3-carboxylate] | 11.1 | 173 |  | 
32 | CC(C)Oc1ccccc1-c1ncc(-c2ccc(CN3CC(C(=O)O)C3)cc2)[se]1 [Compound 24, 1-(4-(2-(2-isopropoxyphenyl)-1,3-selenazole-5-yl)benzyl)azetidine-3-carboxylic acid] |  |  | > 1000 | > 1000
33 | O=C(O)C1CN(Cc2ccc(-c3cnc(-c4cccnc4)[se]3)cc2)C1 [Compound 29, Sodium 1-(4-(2-(pyridine-3-yl)-1,3-selenazole-5-yl)benzyl)azetidine-3-carboxylate] |  |  | 635 | 379
